Among the data in patent US20260166159A1, “KRAS G12D DEGRADATION AGENT, AND PREPARATION METHOD AND USE THEREFOR” (LEADINGTAC PHARMACEUTICAL (SHAOXING) CO., LTD., priority 2022, published 2026) are DC50, Dmax and IC50 values, retold here.

For one assay, the target named is T1, KRAS-G12D (Homo sapiens, UniProt P01116, G12D).
T1 construct: endogenous in cells; host or cells: A-427 (ATCC), AGS, AsPc-1, Panc 04.03
Kind of assay: KRAS-G12D degradation assay (Western Blot), A-427 cells. Conditions: A427 cells, 24 h, class symbols; for Dmax: A-427. It counts as cell-based. Summed up:
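Western blotting of lysates (5 μg protein) quantified KRAS against a β-actin reference after 24 h exposure to compound at final 0.03–3000 nM in 0.25% DMSO. Cells were A-427, AGS, AsPc-1 or Panc 04.03, all KRAS G12D, at 5×10^5/well. Degradation versus control yielded DC50 and Dmax.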
In general terms: Immunoblotting shows a protein as a band on a membrane.

The subject of another assay is phosphorylated ERK. Nature of the assay: KRAS G12D-mediated phosphorylated ERK inhibition assay (AlphaLISA), A427. Conditions: Homo sapiens, A-427; A427 cells; class symbols; read-out: pERK (A427) IC50. The assay is classed as cell-based. Summed up: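 A427 cell samples read with AlphaLISA SureFire Ultra kits for p-ERK 1/2 (Thr202/Tyr204) and total ERK. p-ERK signal normalized to total ERK, percent inhibition calculated against DMSO control, and IC50 obtained by non-linear fit of log concentration versus inhibition.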
On the technique in general: Bead proximity is the source of the signal in Alpha formats.

T1 sequence (P01116 1-188 isoform P01116-2 G12D): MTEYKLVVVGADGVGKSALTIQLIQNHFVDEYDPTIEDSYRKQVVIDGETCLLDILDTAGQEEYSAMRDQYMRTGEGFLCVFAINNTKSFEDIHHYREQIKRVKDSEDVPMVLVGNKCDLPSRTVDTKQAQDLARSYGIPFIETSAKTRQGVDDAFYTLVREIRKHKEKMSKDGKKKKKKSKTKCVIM

In general, DC50 refers to the midpoint of the concentration-degradation curve. The low end stands for degradation at low concentration, the high end for degradation only at high concentration. Broadly, the Dmax is the largest share of the target that was removed. Read a high Dmax as deep degradation. One may read the IC50 as the concentration at which inhibition is half-maximal. At KRAS-G12D, `C#Cc1c(F)ccc2cc(O)cc(-c3ncc4c(N5CC6CCC(C5)N6)nc(OCC5(CN6CCN(CCCCC7CCC8(CC7)CCN(C(=O)c7ccc(Cl)c(N9CCC(=O)NC9=O)c7)CC8)CC6)CC5)nc4c3F)c12` [Example 31, 1-(5-(9-(4-(4-((1-(((4-(3,8-diazabicyclo[3.2.1]octan-3-yl)-7-(8-ethynyl-7-fluoro-3-hydroxynaphthalen-1-yl)-8-fluoropyrido[4,3-d]pyrimidin-2-yl)oxy)methyl)cyclopropyl)methyl)piperazin-1-yl)butyl)-3-azaspiro[5.5]undecane-3-carbonyl)-2-chlorophenyl)dihydropyrimidine-2,4(1H,3H)-dione] showed a half-maximal degradation concentration (DC50) of at most 50 nM and a Dmax of 80 to 100%. The IC50 with phosphorylated ERK is at most 50 nM.

At KRAS-G12D, `C#Cc1c(F)ccc2cc(O)cc(-c3ncc4c(N5CC6CCC(C5)N6)nc(OCC5(CN6CCC(COCCC7CCN(C(=O)c8ccc(Cl)c(N9CCC(=O)NC9=O)c8)CC7)CC6)CC5)nc4c3F)c12` [Example 21, 1-(5-(4-(2-((1-((1-(((4-(3,8-diazabicyclo[3.2.1]octan-3-yl)-7-(8-ethynyl-7-fluoro-3-hydroxynaphthalen-1-yl)-8-fluoropyrido[4,3-d]pyrimidin-2-yl)oxy)methyl)cyclopropyl)methyl)piperidin-4-yl)methoxy)ethyl)piperidine-1-carbonyl)-2-chlorophenyl)dihydropyrimidine-2,4(1H,3H)-dione] registered a DC50 of at most 50 nM and a maximal degradation (Dmax) of 80 to 100%. Further, the IC50 with phosphorylated ERK is at most 50 nM.

At KRAS-G12D, `CCc1c(F)ccc2cc(O)cc(-c3ncc4c(N5CC6CCC(C5)N6)nc(OCC5(CN6CCN(CC7CCC8(CC7)CCN(C(=O)c7ccc(Cl)c(N9CCC(=O)NC9=O)c7)CC8)CC6)CC5)nc4c3F)c12` [Example 30, 1-(5-(9-((4-((1-(((4-(3,8-diazabicyclo[3.2.1]octan-3-yl)-7-(8-ethyl-7-fluoro-3-hydroxynaphthalen-1-yl)-8-fluoropyrido[4,3-d]pyrimidin-2-yl)oxy)methyl)cyclopropyl)methyl)piperazin-1-yl)methyl)-3-azaspiro[5.5]undecane-3-carbonyl)-2-chlorophenyl)dihydropyrimidine-2,4(1H,3H)-dione] gave a DC50 of at most 50 nM and a Dmax of 50 to 80%. Besides, the IC50 in the assay on phosphorylated ERK is at most 50 nM.
